Data published in patent publication US20200048259A1, “KDM5 INHIBITORS” (priority 2016, published 2020).
Read-outs that look alike come from different tables or passages of the source.

Molecular target: T1, Full-length KDM5B enzyme (Homo sapiens, UniProt Q9UGL1)
T1 construct: recombinant protein from baculovirus-transfected Sf21 cells: full-length KDM5B; MW=176.825 kDa; host or cells: baculovirus-transfected Sf21 insect cells
Assay: KDM5B TR-FRET Enzyme Activity Assay (LANCE)
Format: biochemical
Experimental: KDM5B TR-FRET Enzyme Activity Assay
KDM5B enzymatic activity was determined with the LANCE (Lanthanide Chelate Excite) TR-FRET (Time-resolved fluorescence resonance energy transfer) assay. […] Following a 30 minutes compound and enzyme incubation in a humidified chamber, each reaction was initiated by the addition of 1 μL 1× assay buffer containing […] biotinylated H3K4Me3 peptide, and 500 nM α-ketoglutarate. The final reaction in each well of 5 μL consists of 5 nM KDM5B, 500 nM biotinylated-peptide, and 500 nM α-ketoglutarate. De-methylation reactions were allowed to proceed for 60 minutes. Reactions were immediately quenched by the addition of 5 μL of 2× Lance Detection Buffer (PerkinElmer) with 0.5 mM EDTA and 2 nM of Eu-anti-H3K4Mel-2 antibody, and 30 nM of Streptavidin-conjugated Dylight 650 detection reagents. After 60 minutes incubation with detection reagents, reaction plates were read on a PerkinElmer EnVision plate reader using standard TR-FRET protocol. Briefly, excitation of donor molecules (Eu-chelate-anti-H3K4Me1-2-antibody) with a laser light source at 337 nm produces energy that can be transferred to Dylight-650 acceptor molecules if this donor:acceptor pair is within close proximity.
Fluorescence intensity at both 665 nm (acceptor) and 615 nm (donor) are measured and a TR-FRET ratio calculated for each well (acceptor intensity/donor intensity). IC50 values were determined by 4 parameter robust fit of TR-FRET ratio values vs. (Log 10) compound concentrations.

[1] = 5 nM full-length KDM5B, biotinylated H3K4Me3 peptide, 500 nM α-ketoglutarate, ten point titration 100000 nM to 5.08 nM, read-out: IC50

T1 sequence (Q9UGL1 whole entry): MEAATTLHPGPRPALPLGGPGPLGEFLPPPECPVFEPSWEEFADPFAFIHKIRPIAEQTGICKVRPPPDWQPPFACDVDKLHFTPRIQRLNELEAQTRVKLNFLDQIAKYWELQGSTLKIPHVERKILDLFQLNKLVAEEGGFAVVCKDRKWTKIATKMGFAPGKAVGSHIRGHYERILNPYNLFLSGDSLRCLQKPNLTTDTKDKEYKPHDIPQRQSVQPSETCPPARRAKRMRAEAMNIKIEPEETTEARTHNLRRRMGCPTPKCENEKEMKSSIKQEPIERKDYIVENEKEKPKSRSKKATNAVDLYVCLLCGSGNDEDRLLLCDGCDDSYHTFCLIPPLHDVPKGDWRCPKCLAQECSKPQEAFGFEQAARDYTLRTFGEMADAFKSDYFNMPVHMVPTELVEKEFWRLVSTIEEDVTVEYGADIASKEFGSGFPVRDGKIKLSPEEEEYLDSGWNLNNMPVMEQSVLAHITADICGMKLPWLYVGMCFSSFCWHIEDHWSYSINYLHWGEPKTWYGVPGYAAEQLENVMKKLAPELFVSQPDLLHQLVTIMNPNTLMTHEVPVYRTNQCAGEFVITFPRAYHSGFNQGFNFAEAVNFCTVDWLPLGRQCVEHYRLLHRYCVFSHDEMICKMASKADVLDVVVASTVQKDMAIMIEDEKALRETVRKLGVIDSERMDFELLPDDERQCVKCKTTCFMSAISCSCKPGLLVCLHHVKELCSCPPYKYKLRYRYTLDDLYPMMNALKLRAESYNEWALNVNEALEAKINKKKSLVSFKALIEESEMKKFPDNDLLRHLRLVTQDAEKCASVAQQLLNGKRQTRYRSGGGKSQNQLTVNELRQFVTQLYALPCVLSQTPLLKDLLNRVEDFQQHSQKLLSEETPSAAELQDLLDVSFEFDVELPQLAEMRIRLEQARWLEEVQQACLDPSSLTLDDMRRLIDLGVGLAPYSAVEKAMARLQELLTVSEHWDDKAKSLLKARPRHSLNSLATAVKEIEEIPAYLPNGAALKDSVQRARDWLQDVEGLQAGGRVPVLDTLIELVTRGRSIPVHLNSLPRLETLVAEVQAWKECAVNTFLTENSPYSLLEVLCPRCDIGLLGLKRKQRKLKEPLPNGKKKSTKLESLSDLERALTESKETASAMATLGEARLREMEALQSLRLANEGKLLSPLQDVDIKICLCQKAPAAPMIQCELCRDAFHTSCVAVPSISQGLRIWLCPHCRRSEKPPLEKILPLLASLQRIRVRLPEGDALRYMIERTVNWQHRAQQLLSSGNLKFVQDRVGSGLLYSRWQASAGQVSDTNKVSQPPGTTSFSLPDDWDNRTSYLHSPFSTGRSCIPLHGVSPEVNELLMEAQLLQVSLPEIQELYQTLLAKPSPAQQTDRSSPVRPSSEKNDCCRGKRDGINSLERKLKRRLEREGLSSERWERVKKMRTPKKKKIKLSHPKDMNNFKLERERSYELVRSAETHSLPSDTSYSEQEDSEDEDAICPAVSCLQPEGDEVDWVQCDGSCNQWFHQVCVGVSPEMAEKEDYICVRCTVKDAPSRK

SMILES | IC50 [1] | IC50
CCc1[nH]c2nc(C)nn2c(=O)c1C [Example 7-47, 5-ethyl-2,6-dimethyl[1,2,4]triazolo[1,5-a]pyrimidin-7(4H)-one] | 28.8 µM | 
Cc1nc2[nH]c(C(F)(F)F)c(C)c(=O)n2n1 [Example 7-48, 2,6-dimethyl-5-(trifluoromethyl)[1,2,4]triazolo[1,5-a]pyrimidin-7(4H)-one] | 29.6 µM | 
CCCCc1cc(=O)n2nc(C)nc2[nH]1 [Example 7-49, 5-butyl-2-methyl[1,2,4]triazolo[1,5-a]pyrimidin-7(4H)-one] |  | > 100 µM
Cc1nc2[nH]c(C)c(F)c(=O)n2n1 [Example 7-50, 6-fluoro-2,5-dimethyl[1,2,4]triazolo[1,5-a]pyrimidin-7(4H)-one] | 70.5 µM | 
Cc1nc2[nH]c(-c3ccc(Cl)cc3)cc(=O)n2n1 [Example 7-51, 5-(4-chlorophenyl)-2-methyl[1,2,4]triazolo[1,5-a]pyrimidin-7(4H)-one] |  | 14.2 µM
Cc1nc2[nH]c(-c3ccccc3Cl)cc(=O)n2n1 [Example 7-52, 5-(2-chlorophenyl)-2-methyl[1,2,4]triazolo[1,5-a]pyrimidin-7(4H)-one] |  | > 100 µM
Cc1nc2[nH]c(-c3ccccc3F)cc(=O)n2n1 [Example 7-53, 5-(2-fluorophenyl)-2-methyl[1,2,4]triazolo[1,5-a]pyrimidin-7(4H)-one] | 37.5 µM | 
Cc1nc2[nH]c(-c3cccc(Cl)c3)cc(=O)n2n1 [Example 7-54, 5-(3-chlorophenyl)-2-methyl[1,2,4]triazolo[1,5-a]pyrimidin-7(4H)-one] | 12.3 µM | 
Cc1nc2[nH]c(Cc3ccccc3)cc(=O)n2n1 [Example 7-55, 5-benzyl-2-methyl[1,2,4]triazolo[1,5-a]pyrimidin-7(4H)-one] | 98.4 µM | 
Cc1nc2[nH]c(CC3CCCC3)cc(=O)n2n1 [Example 7-56, 5-(cyclopentylmethyl)-2-methyl[1,2,4]triazolo[1,5-a]pyrimidin-7(4H)-one] |  | > 100 µM
Cc1nc2[nH]c(CC(C)(C)C)cc(=O)n2n1 [Example 7-57, 5-(2,2-dimethylpropyl)-2-methyl[1,2,4]triazolo[1,5-a]pyrimidin-7(4H)-one] |  | > 100 µM
Cc1nc2[nH]c(C3CCOCC3)cc(=O)n2n1 [Example 7-58, 2-methyl-5-(tetrahydro-2H-pyran-4-yl)[1,2,4]triazolo[1,5-a]pyrimidin-7(4H)-one] |  | > 100 µM
Cc1nc2[nH]c(C3CCCCC3)cc(=O)n2n1 [Example 7-59, 5-cyclohexyl-2-methyl[1,2,4]triazolo[1,5-a]pyrimidin-7(4H)-one] |  | > 100 µM
CCc1c(C(F)(F)F)[nH]c2nc(C)nn2c1=O [Example 7-60, 6-ethyl-2-methyl-5-(trifluoromethyl)[1,2,4]triazolo[1,5-a]pyrimidin-7(4H)-one] | 6.38 µM | 
Cc1nc2[nH]c(C3CCCC3)cc(=O)n2n1 [Example 7-61, 5-cyclopentyl-2-methyl[1,2,4]triazolo[1,5-a]pyrimidin-7(4H)-one] |  | > 100 µM
Cc1nc2[nH]c(C3CCC3)cc(=O)n2n1 [Example 7-62, 5-cyclobutyl-2-methyl[1,2,4]triazolo[1,5-a]pyrimidin-7(4H)-one] | 63.2 µM | 
Cc1nc2[nH]c(CC3CC3)cc(=O)n2n1 [Example 7-63, 5-(cyclopropylmethyl)-2-methyl[1,2,4]triazolo[1,5-a]pyrimidin-7(4H)-one] |  | > 100 µM
Cc1nc2[nH]c(C3CC3)c(C)c(=O)n2n1 [Example 7-64, 5-cyclopropyl-2,6-dimethyl[1,2,4]triazolo[1,5-a]pyrimidin-7(4H)-one] | 44.2 µM | 
Cc1nc2[nH]c(C(F)(F)F)c(F)c(=O)n2n1 [Example 7-65, 6-fluoro-2-methyl-5-(trifluoromethyl)[1,2,4]triazolo[1,5-a]pyrimidin-7(4H)-one] | 28.2 µM | 
Cc1nc2[nH]c(C3CCCC3)c(C)c(=O)n2n1 [Example 7-66, 5-cyclopentyl-2,6-dimethyl[1,2,4]triazolo[1,5-a]pyrimidin-7(4H)-one] | 27.8 µM | 
Cc1nc2[nH]c(C3CCCCC3)c(C)c(=O)n2n1 [Example 7-67, 5-cyclohexyl-2,6-dimethyl[1,2,4]triazolo[1,5-a]pyrimidin-7(4H)-one] | 53.6 µM | 
Cc1nc2[nH]c(C3CCC3)c(C)c(=O)n2n1 [Example 7-68, 5-cyclobutyl-2,6-dimethyl[1,2,4]triazolo[1,5-a]pyrimidin-7(4H)-one] | 22.8 µM | 
Cc1nc2[nH]c(-c3ccccc3)cc(=O)n2n1 [Example 7-69, 2-methyl-5-phenyl-[1,2,4]triazolo[1,5-a]pyrimidin-7(4H)-one] |  | 7.64 µM
